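A five-concentration, 48-hour dose response in 96-well plates underlies each endpoint, interpolated linearly between surrounding concentrations. GI50 is the concentration that inhibits growth by half.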 Active and inactive are the calls of the source. No stated cut-off is given here; in the data, active = GI50 up to about 1.1 µM and inactive = higher. Residues, ends and D or L forms follow the SMILES beside them. *: point of attachment. Boc = CC(C)(C)OC(=O)*; OBn = c1ccc(CO*)cc1
Experiments:
Test in all cases: NCI tumour cell line growth inhibition, 48 h
[1] = system: ACHN
[2] = system: SK-MEL-5
[3] = system: MDA-N
[4] = system: MDA-MB-231
[5] = system: COLO 205
[6] = system: MCF7
[7] = system: 786-0
[8] = system: OVCAR-3
[9] = system: LOX IMVI
[10] = system: TK-10
[11] = system: HT-29
[12] = system: MDA-MB-435
[13] = system: Hs-578T
[14] = system: SF-268
[15] = system: RPMI-8226
[16] = system: SN12C
[17] = system: Malme-3M
[18] = system: HCC 2998

Row | SMILES | GI50 [1] | GI50 [2] | GI50 [3] | GI50 [4] | GI50 [5] | GI50 [6] | GI50 [7] | GI50 [8] | GI50 [9] | GI50 [10] | GI50 [11] | GI50 [12] | GI50 [13] | GI50 [14] | GI50 [15] | GI50 [16] | GI50 [17] | GI50 [18]
1 | CCCCOC(=O)NC(Nc1cccc(C(F)(F)F)c1)(C(F)(F)F)C(F)(F)F | 47.4 µM (inactive) | 49.9 µM (inactive) | 41.4 µM (inactive) | > 100 µM (inactive) | 45.7 µM (inactive) | 59.4 µM (inactive) | 84.1 µM (inactive) | 56 µM (inactive) | 32.1 µM (inactive) | 71.1 µM (inactive) | 50.8 µM (inactive) | 33.8 µM (inactive) | 44.7 µM (inactive) | 60 µM (inactive) | 17.2 µM (inactive) | 68.7 µM (inactive) | 29.2 µM (inactive) | –
2 | COc1cc2c(c(OC)c1OC)C(=O)[C@H](O)[C@H]2NC(N)=O | 34.1 µM (inactive) | 40.7 µM (inactive) | > 100 µM (inactive) | 86.3 µM (inactive) | 50.7 µM (inactive) | > 100 µM (inactive) | > 100 µM (inactive) | 82 µM (inactive) | 72.1 µM (inactive) | > 100 µM (inactive) | > 100 µM (inactive) | > 100 µM (inactive) | 60 µM (inactive) | > 100 µM (inactive) | > 100 µM (inactive) | > 100 µM (inactive) | > 100 µM (inactive) | > 100 µM (inactive)
3 | CC1CC(NN(C)C)C2(C(N)=O)C(N)=NC(=O)C12C#N (configuration not stated) | > 100 µM (inactive) | > 100 µM (inactive) | > 100 µM (inactive) | > 100 µM (inactive) | > 100 µM (inactive) | > 100 µM (inactive) | > 100 µM (inactive) | – | > 100 µM (inactive) | > 100 µM (inactive) | > 100 µM (inactive) | > 100 µM (inactive) | > 100 µM (inactive) | > 100 µM (inactive) | > 100 µM (inactive) | > 100 µM (inactive) | > 100 µM (inactive) | > 100 µM (inactive)
4 | CCOC(=O)c1c(-c2cccc3ccccc23)c(C#N)c(=S)n(C2OC(COC(C)=O)C(OC(C)=O)C(OC(C)=O)C2OC(C)=O)c1C (configuration not stated) | > 100 µM (inactive) | > 100 µM (inactive) | > 100 µM (inactive) | > 100 µM (inactive) | > 100 µM (inactive) | > 100 µM (inactive) | > 100 µM (inactive) | > 100 µM (inactive) | > 100 µM (inactive) | > 100 µM (inactive) | > 100 µM (inactive) | > 100 µM (inactive) | – | > 100 µM (inactive) | – | > 100 µM (inactive) | > 100 µM (inactive) | > 100 µM (inactive)
5 | CC1=C(C(N)=O)C(c2ccncc2)C(C#N)C(=O)N1 (configuration not stated) | > 100 µM (inactive) | > 100 µM (inactive) | – | > 100 µM (inactive) | > 100 µM (inactive) | > 100 µM (inactive) | > 100 µM (inactive) | – | > 100 µM (inactive) | > 100 µM (inactive) | – | > 100 µM (inactive) | > 100 µM (inactive) | > 100 µM (inactive) | > 100 µM (inactive) | – | – | > 100 µM (inactive)
6 | O=C1OCCC[C@H]2O[C@@H](COCc3ccccc3)C[C@@H]12 | > 100 µM (inactive) | > 100 µM (inactive) | > 100 µM (inactive) | > 100 µM (inactive) | > 100 µM (inactive) | > 100 µM (inactive) | > 100 µM (inactive) | > 100 µM (inactive) | – | > 100 µM (inactive) | > 100 µM (inactive) | > 100 µM (inactive) | > 100 µM (inactive) | > 100 µM (inactive) | > 100 µM (inactive) | > 100 µM (inactive) | – | –
7 | COC(=O)C[C@H]1CCC2(OCCO2)[C@]1(C)C(=O)OC | > 100 µM (inactive) | > 100 µM (inactive) | – | – | > 100 µM (inactive) | – | > 100 µM (inactive) | > 100 µM (inactive) | > 100 µM (inactive) | > 100 µM (inactive) | > 100 µM (inactive) | – | – | > 100 µM (inactive) | > 100 µM (inactive) | > 100 µM (inactive) | > 100 µM (inactive) | –
8 | Cc1cc(=O)oc2c(CNC(Cc3ccccc3)C(=O)O)c(O)ccc12 (configuration not stated) | > 100 µM (inactive) | > 100 µM (inactive) | > 100 µM (inactive) | > 100 µM (inactive) | > 100 µM (inactive) | > 100 µM (inactive) | > 100 µM (inactive) | > 100 µM (inactive) | > 100 µM (inactive) | > 100 µM (inactive) | > 100 µM (inactive) | > 100 µM (inactive) | > 100 µM (inactive) | > 100 µM (inactive) | > 100 µM (inactive) | > 100 µM (inactive) | 61.5 µM (inactive) | > 100 µM (inactive)
9 | CC(C)C(NC(=O)C(Cc1ccccc1)NC(=O)OC(C)(C)C)C(=O)NCC(=O)OCc1ccccc1 (stereo not drawn) (Boc-Phe-Val-Gly-OBn; configuration not given here) | 17.5 µM (inactive) | – | 19.4 µM (inactive) | 16.6 µM (inactive) | 20.6 µM (inactive) | > 10 µM (inactive) | 17.9 µM (inactive) | 14.4 µM (inactive) | 14.9 µM (inactive) | 13 µM (inactive) | 17.5 µM (inactive) | 6.92 µM (inactive) | – | 14.7 µM (inactive) | 16.5 µM (inactive) | 18 µM (inactive) | 18.5 µM (inactive) | 17.8 µM (inactive)
10 | COC(=O)C1CCC(=O)N1CN(C(C)=O)c1cc(OC)ccc1OC (configuration not stated) | > 100 µM (inactive) | > 100 µM (inactive) | > 100 µM (inactive) | > 100 µM (inactive) | > 100 µM (inactive) | > 100 µM (inactive) | > 100 µM (inactive) | > 100 µM (inactive) | > 100 µM (inactive) | > 100 µM (inactive) | > 100 µM (inactive) | > 100 µM (inactive) | > 100 µM (inactive) | > 100 µM (inactive) | > 100 µM (inactive) | > 100 µM (inactive) | > 100 µM (inactive) | –
11 | O=C(CC(C(=O)c1ccsc1)c1cccs1)c1ccsc1 (configuration not stated) | 42 µM (inactive) | 31.4 µM (inactive) | 30.1 µM (inactive) | 92 µM (inactive) | 45.1 µM (inactive) | 39 µM (inactive) | > 100 µM (inactive) | – | 34.1 µM (inactive) | > 100 µM (inactive) | 63.1 µM (inactive) | 34.8 µM (inactive) | – | 85.9 µM (inactive) | 12.1 µM (inactive) | 65.6 µM (inactive) | 56.8 µM (inactive) | > 100 µM (inactive)
12 | COc1ccc2c(c1)nc1n2C(c2c(F)cccc2Cl)SC1 (configuration not stated) | 20.8 µM (inactive) | 3.17 µM (inactive) | 1.35 µM (inactive) | 3.49 µM (inactive) | 3.98 µM (inactive) | 3.66 µM (inactive) | 5.68 µM (inactive) | – | 6.64 µM (inactive) | > 25.9 µM (inactive) | 4.52 µM (inactive) | 0.703 µM (active) | 1.69 µM (inactive) | 3.66 µM (inactive) | – | > 22.6 µM (inactive) | 1.02 µM (active) | 4.2 µM (inactive)
13 | CCOC(=O)c1sc2c(c1OC(=O)c1cc(OC)c(OC)c(OC)c1)c(=O)n(-c1ccccc1)c(=S)n2-c1ccccc1 | > 100 µM (inactive) | > 100 µM (inactive) | > 100 µM (inactive) | 56.6 µM (inactive) | > 100 µM (inactive) | > 100 µM (inactive) | 84.1 µM (inactive) | 87.7 µM (inactive) | > 100 µM (inactive) | > 100 µM (inactive) | 98.9 µM (inactive) | 79.1 µM (inactive) | 51.2 µM (inactive) | > 100 µM (inactive) | 93.1 µM (inactive) | 90.2 µM (inactive) | > 100 µM (inactive) | 81.3 µM (inactive)
14 | CN(COC(=O)c1ccccc1)c1nc(N(C)COC(=O)c2ccccc2)nc(N(C)COC(=O)c2ccccc2)n1 | 21.2 µM (inactive) | > 100 µM (inactive) | > 100 µM (inactive) | 15.7 µM (inactive) | > 100 µM (inactive) | > 71.9 µM (inactive) | 11.4 µM (inactive) | > 84.1 µM (inactive) | > 100 µM (inactive) | 20.3 µM (inactive) | > 100 µM (inactive) | > 100 µM (inactive) | 22.4 µM (inactive) | 21.8 µM (inactive) | > 100 µM (inactive) | > 100 µM (inactive) | > 100 µM (inactive) | > 100 µM (inactive)
15 | Cc1nc2cccc([N+](=O)[O-])c2c(NCCCN(C)C)c1C | 97.3 µM (inactive) | 35.6 µM (inactive) | 26.7 µM (inactive) | – | 22.3 µM (inactive) | 23 µM (inactive) | > 61.5 µM (inactive) | 26.6 µM (inactive) | 84.9 µM (inactive) | > 40.9 µM (inactive) | 19.9 µM (inactive) | 71.4 µM (inactive) | > 61.1 µM (inactive) | > 77.3 µM (inactive) | 34.8 µM (inactive) | 11.5 µM (inactive) | 22.2 µM (inactive) | 21.8 µM (inactive)
16 | CO[C@]12CC(=O)C3(C(C[C@H]4CC5CC[C@H]6C[C@@H](OC(C)=O)CC[C@]6(OC(C)=O)C5C[C@@]43C)C1)C1C[C@H]3[C@@H]4CC[C@H]5C[C@@H](OC(C)=O)CC[C@]5(OC(C)=O)[C@H]4CC[C@]3(C)C12 (some centres not stated) | > 100 µM (inactive) | 24.4 µM (inactive) | 98.2 µM (inactive) | > 100 µM (inactive) | 40.5 µM (inactive) | 80.5 µM (inactive) | 64.4 µM (inactive) | > 100 µM (inactive) | 89.7 µM (inactive) | > 100 µM (inactive) | 82.4 µM (inactive) | 56 µM (inactive) | 71.4 µM (inactive) | > 100 µM (inactive) | 37.2 µM (inactive) | > 100 µM (inactive) | > 100 µM (inactive) | 59.2 µM (inactive)

Reference: ChEMBL document CHEMBL1201862, “PubChem BioAssay data set” (2004)
